The values that follow come from ChEMBL document CHEMBL3886421, “6-thio-substituted imidazo[1,2-a]pyrazines as Mps-1 inhibitors” (2015).

For the experiment, the target named is T1, Dual specificity protein kinase TTK (Homo sapiens, UniProt P33981).
T1 sequence (P33981 whole entry): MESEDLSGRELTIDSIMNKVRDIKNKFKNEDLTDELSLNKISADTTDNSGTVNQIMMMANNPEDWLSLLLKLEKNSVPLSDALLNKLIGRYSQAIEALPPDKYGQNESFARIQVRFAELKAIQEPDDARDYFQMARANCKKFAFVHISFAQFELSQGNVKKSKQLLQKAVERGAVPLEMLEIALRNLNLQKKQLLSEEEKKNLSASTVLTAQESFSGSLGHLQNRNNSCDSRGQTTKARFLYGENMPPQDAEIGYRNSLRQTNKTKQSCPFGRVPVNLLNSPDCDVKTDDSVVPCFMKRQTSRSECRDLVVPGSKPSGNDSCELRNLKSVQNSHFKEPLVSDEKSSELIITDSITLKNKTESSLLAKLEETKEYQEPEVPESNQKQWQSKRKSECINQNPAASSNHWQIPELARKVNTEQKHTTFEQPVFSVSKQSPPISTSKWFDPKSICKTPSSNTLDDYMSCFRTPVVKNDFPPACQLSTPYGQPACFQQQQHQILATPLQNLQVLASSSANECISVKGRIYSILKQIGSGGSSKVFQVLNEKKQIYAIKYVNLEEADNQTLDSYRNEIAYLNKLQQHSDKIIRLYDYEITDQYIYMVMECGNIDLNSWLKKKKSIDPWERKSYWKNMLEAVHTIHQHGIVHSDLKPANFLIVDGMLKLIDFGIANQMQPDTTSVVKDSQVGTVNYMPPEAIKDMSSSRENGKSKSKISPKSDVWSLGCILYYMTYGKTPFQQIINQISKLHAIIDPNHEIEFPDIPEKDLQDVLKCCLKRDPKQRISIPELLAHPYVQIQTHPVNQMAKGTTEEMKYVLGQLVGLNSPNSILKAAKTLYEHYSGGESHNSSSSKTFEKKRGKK
In words: Kinase Assay: For the assay 50 nL of a 100-fold concentrated solution of the test compound in DMSO was pipetted into a black low volume 384 well microtiter plate (Greiner Bio-One, Frickenhausen, Germany), 2 ul of a solution of Mps-1 in assay buffer [0.1 mM sodium-ortho-vanadate, 10 mM MgCl2, 2 mM DTT, 25 mM Hepes pH 7.7, 0.05% BSA, 0.001% Pluronic F-127] were added and the mixture was incubated for 15 min at 22° C. to allow pre-binding of the test compounds to Mps-1 before the start of the kinase reaction. Then the kinase reaction was started by the addition of 3 ul of a solution of 16.7 adenosine-tri-phosphate (ATP, 16.7 uM=>final conc. in the 5 ul assay volume is 10 uM) and peptide substrate (1.67 uM=>final conc. in the 5 ul assay volume is 1 uM) in assay buffer and the resulting mixture was incubated for a reaction time of 60 min at 22° C. The concentration of Mps-1 in the assay was adjusted to the activity of the enzyme lot.

Regarding `CCCSc1cn2c(-c3ccc(C(=O)NC4CC4)c(C)c3)cnc2c(NCC(C)(C)O)n1`, the 50% inhibitory concentration (IC50) (as a rule, the concentration at which inhibition is half-maximal) is 52.1 nM.
